Patent US20020041880A1, “Method of treating cancer” (priority 2000, published 2002)

Row | Structure (SMILES) | melting point
1 | c1cc(-c2cnn3cc(-c4ccc(OCCN5CCOCC5)cc4)cnc23)cs1 [Example 3, 3-(3-thienyl)-6-(4-(2-(4-morpholinyl)ethoxy)phenyl)pyrazolo(1,5-A)pyrimidine] | 149 to 151 °C
2 | c1cc(-c2cnn3cc(-c4ccc(OCCN5CCCCC5)cc4)cnc23)cs1 [Example 4, 6-[4-(2-piperidin-1-yl-ethoxy)-phenyl]-3-thiophen-3-yl-pyrazolo[1,5-a]pyrimidine] | 141 to 143 °C
